Source: ChEMBL document CHEMBL3132769, “Fragment growing to retain or alter the selectivity of anchored kinase hinge-binding fragments” (Medchemcomm, 2014)

Tests used:
[1] = target: Mitogen-activated protein kinase kinase kinase kinase 4 (Homo sapiens) (UniProt O95819); conditions: 0.1 uM
Description: Inhibition of human HGK catalytic domain expressed in baculovirus assessed as substrate phosphorylation using fluorescence-labelled peptides as substrate at 0.1 uM after 90 mins by microfluidic peptide phosphorylation assay

[2] = target: Insulin-like growth factor 1 receptor (Homo sapiens) (UniProt P08069); assay: Inhibition of human IGF1R catalytic domain expressed in baculovirus assessed as substrate phosphorylation using fluorescence-labelled peptides as substrate at 70 uM after 90 mins by microfluidic peptide phosphorylation assay
[3] = tested on: Tyrosine-protein kinase ABL1 (Homo sapiens), P00519 [H396P]; assay: Inhibition of human truncated ABL H396P mutant expressed in baculovirus assessed as substrate phosphorylation using fluorescence-labelled peptides as substrate at 0.2 uM after 90 mins by microfluidic peptide phosphorylation assay
[4] = target: Protein kinase C delta type (Homo sapiens) (UniProt Q05655); assay: Inhibition of human truncated PKC delta expressed in baculovirus assessed as substrate phosphorylation using fluorescence-labelled peptides as substrate at 0.2 uM after 90 mins by microfluidic peptide phosphorylation assay
[5] = target: T1, Calcium/calmodulin-dependent protein kinase type IV (Homo sapiens) (UniProt Q16566); assay: Inhibition of human full length CAMK4 expressed in baculovirus assessed as substrate phosphorylation using fluorescence-labelled peptides as substrate at 2 uM after 90 mins by microfluidic peptide phosphorylation assay
T1 sequence (whole entry): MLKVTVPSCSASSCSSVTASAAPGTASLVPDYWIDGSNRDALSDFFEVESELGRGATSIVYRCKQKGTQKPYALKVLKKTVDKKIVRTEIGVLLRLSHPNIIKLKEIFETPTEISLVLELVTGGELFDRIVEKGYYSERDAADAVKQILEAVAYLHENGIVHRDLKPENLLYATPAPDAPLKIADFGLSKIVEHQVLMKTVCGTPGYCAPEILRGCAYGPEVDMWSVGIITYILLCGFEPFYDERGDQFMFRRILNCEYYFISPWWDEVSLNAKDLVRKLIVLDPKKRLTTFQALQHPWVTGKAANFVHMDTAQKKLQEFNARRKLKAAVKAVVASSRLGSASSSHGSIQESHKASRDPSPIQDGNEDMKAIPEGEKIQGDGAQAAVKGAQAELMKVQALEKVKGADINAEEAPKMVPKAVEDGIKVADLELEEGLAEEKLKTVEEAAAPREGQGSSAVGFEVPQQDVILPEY

[6] = target: Ribosomal protein S6 kinase alpha-2 (Homo sapiens) (UniProt Q15349); assay: Inhibition of human full length RSK3 expressed in baculovirus assessed as substrate phosphorylation using fluorescence-labelled peptides as substrate at 8 uM after 90 mins by microfluidic peptide phosphorylation assay
[7] = target: T2, Serine/threonine-protein kinase BRSK2 (Homo sapiens) (UniProt Q8IWQ3); assay: Inhibition of human truncated BRSK2 expressed in baculovirus assessed as substrate phosphorylation using fluorescence-labelled peptides as substrate at 1000 uM after 90 mins by microfluidic peptide phosphorylation assay
T2 sequence (whole entry): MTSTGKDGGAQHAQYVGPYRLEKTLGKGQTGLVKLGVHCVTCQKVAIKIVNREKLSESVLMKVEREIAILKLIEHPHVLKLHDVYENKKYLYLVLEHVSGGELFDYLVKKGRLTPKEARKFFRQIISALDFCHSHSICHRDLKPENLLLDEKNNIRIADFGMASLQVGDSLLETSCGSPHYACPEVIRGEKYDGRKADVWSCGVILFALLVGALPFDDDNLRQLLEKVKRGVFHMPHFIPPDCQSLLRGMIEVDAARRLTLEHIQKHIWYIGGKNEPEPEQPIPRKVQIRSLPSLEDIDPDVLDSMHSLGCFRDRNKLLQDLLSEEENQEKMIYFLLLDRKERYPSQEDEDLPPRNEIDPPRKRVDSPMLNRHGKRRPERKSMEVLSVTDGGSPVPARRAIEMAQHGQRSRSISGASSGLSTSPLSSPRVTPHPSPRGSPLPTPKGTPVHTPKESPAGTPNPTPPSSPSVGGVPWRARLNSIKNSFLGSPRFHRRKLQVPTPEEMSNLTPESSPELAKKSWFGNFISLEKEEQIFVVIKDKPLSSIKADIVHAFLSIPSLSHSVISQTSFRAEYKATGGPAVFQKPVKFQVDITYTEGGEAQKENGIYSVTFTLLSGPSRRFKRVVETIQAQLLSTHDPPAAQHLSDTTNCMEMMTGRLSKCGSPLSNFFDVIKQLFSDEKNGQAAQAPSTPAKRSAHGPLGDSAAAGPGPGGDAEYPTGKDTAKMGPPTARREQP

[8] = target: T3, Serine/threonine-protein kinase Nek2 (Homo sapiens) (UniProt P51955); assay: Inhibition of human full length NEK2 expressed in baculovirus assessed as substrate phosphorylation using fluorescence-labelled peptides as substrate at 1000 uM after 90 mins by microfluidic peptide phosphorylation assay
T3 sequence (whole entry): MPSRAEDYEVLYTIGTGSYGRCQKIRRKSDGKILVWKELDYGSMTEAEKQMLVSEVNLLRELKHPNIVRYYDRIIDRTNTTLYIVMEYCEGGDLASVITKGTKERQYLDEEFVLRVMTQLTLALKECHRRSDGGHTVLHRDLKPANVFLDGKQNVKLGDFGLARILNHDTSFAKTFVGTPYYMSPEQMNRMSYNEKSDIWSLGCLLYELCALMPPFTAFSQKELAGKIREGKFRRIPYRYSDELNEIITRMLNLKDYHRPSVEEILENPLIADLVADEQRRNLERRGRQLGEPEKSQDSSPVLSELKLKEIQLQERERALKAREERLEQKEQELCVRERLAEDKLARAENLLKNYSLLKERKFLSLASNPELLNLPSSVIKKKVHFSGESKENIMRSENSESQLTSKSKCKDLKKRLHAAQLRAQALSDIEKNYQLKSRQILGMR

[9] = target: T4, Testis-specific serine/threonine-protein kinase 1 (Homo sapiens) (UniProt Q9BXA7); assay: Inhibition of human full length TSSK1 expressed in baculovirus assessed as substrate phosphorylation using fluorescence-labelled peptides as substrate at 1000 uM after 90 mins by microfluidic peptide phosphorylation assay
T4 sequence (whole entry): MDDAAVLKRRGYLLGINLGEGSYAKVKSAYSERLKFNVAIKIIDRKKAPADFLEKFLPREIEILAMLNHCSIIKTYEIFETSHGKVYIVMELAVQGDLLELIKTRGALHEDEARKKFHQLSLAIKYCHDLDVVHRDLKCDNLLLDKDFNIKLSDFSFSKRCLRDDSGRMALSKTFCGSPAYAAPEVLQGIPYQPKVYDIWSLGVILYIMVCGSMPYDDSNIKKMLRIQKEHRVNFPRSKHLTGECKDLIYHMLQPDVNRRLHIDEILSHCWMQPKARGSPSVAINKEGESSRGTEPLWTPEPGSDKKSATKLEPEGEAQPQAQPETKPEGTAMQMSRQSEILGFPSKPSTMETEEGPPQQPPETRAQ

Mitogen-activated protein kinase kinase kinase kinase 4 (Homo sapiens), sequence (O95819 2-1239 limits assumed): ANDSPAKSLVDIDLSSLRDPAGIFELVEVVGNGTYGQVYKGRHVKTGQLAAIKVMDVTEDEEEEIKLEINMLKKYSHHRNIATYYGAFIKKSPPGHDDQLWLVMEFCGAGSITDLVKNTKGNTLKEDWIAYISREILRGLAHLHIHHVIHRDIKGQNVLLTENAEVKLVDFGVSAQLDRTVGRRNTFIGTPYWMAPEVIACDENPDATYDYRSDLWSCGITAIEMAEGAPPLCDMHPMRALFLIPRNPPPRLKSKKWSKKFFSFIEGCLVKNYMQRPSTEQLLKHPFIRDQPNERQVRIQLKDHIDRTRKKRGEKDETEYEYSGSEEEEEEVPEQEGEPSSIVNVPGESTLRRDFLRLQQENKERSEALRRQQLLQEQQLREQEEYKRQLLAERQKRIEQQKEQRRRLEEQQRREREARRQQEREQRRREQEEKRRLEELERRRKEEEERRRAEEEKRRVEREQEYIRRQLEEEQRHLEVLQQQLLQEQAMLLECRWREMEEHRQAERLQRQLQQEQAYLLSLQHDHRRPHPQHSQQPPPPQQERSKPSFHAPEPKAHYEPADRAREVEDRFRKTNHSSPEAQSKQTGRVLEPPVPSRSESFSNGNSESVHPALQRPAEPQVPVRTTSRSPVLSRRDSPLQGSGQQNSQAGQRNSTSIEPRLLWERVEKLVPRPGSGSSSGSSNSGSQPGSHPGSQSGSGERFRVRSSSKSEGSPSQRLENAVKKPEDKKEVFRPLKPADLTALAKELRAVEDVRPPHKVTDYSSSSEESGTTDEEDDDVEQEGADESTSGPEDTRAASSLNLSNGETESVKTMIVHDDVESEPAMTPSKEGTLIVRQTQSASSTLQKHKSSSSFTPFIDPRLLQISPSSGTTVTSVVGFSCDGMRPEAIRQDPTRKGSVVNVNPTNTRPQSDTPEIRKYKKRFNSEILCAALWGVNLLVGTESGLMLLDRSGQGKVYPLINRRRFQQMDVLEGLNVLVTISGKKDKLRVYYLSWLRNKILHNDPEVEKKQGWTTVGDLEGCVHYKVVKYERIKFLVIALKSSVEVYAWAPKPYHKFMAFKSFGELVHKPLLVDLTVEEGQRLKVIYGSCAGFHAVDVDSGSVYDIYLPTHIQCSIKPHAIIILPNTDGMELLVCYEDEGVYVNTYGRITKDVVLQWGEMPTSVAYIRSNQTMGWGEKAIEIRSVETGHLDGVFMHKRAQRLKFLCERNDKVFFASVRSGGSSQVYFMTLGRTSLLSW
Ribosomal protein S6 kinase alpha-2 (Homo sapiens), sequence (Q15349 whole entry, the tested form may be a part): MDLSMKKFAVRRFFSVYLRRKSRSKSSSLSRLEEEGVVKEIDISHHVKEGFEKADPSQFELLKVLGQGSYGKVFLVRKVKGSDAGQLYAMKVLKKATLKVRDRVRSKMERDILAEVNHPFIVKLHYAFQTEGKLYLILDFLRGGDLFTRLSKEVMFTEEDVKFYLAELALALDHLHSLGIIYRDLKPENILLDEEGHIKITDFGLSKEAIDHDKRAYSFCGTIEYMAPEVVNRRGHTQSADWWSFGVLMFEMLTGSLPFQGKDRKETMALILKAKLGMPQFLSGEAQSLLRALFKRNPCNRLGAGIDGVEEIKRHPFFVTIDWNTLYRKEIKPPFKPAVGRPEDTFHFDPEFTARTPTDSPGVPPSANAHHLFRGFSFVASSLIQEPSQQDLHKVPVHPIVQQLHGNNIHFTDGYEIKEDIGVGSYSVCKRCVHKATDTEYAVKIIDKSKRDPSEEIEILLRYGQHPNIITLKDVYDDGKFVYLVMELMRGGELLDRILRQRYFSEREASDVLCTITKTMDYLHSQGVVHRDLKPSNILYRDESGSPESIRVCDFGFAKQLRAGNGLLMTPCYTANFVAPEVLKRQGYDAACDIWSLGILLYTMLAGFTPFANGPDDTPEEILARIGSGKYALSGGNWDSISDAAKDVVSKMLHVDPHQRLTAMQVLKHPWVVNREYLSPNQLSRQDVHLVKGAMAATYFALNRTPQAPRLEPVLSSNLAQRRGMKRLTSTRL
Protein kinase C delta type (Homo sapiens), sequence (Q05655 whole entry, looked up, the tested form may be a part): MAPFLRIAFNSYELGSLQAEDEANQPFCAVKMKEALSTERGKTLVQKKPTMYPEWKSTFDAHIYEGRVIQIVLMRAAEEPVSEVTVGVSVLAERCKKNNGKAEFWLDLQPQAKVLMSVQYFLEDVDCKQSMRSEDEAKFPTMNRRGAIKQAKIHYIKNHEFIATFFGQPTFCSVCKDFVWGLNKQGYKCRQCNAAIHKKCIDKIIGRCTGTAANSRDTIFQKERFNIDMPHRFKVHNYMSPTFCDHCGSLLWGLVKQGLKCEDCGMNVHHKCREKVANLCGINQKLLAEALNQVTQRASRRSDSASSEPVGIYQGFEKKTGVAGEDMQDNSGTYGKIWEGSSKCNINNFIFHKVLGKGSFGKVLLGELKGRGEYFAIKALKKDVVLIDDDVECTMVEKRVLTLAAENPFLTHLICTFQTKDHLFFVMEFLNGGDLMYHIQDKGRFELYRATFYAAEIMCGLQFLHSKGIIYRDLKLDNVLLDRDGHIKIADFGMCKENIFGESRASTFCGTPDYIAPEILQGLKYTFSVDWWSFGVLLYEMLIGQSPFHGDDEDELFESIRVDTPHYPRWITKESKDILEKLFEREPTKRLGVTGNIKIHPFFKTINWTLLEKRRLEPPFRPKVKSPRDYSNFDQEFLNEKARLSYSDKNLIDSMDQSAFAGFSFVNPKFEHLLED

**Q.** Which inhibition [1] does the source give for `C[C@H](CN(C)C)Oc1nc(Nc2cc3cccc(Cl)c3cn2)cnc1C#N` here?
**A.** The inhibition was 0%.

**Q.** For `CNCc1ccc(-c2ncnc3[nH]cnc23)cc1`, which inhibition [2] is on record?
**A.** Its inhibition is 0%.

**Q.** For `Clc1ccc(C2(c3ccc(-c4ncnc5[nH]cnc45)cc3)CCNCC2)cc1`, which inhibition [3] is on record?
**A.** The inhibition was 4.5%.

**Q.** And the inhibition [4]?
**A.** The inhibition was 37.5%.

**Q.** For `NC1CCN(c2ncnc3[nH]ccc23)CC1`, which inhibition [5] is on record?
**A.** The inhibition was 12%.

**Q.** For `NCC1CCN(c2ncnc3[nH]ccc23)CC1`, which inhibition [6] is on record?
**A.** Its inhibition is 28%.

**Q.** What does the source list for `c1cnc2[nH]ccc2c1`?
**A.** inhibition [7]: 28%; inhibition [8]: 2.5%; inhibition [9]: 52.5%
